Patent publication US20240391862A1, “(1,4,5-TRISUBSTITUTED-1H-PYRAZOL-3-YL)OXY-2-ALKOXY ALKYL ACIDS AND THEIR DERIVATIVES, THEIR SALTS AND THEIR USE AS HERBICIDAL AGENTS” (Bayer AKtiengesellschaft, priority 2021, published 2024)

Legend:
[1] = test system: VERPE; experiment: Post-emergence herbicidal effect, greenhouse pot test; type: in vivo, Veronica persica
Method in brief: (§1)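 Visual % activity scored roughly 3 weeks post-spray against untreated plants, where 100% means death and 0% equals control. Plants were treated at the one-leaf stage, 2 to 3 weeks after sowing in sandy loam, at 20 to 320 g/ha.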

[2] = test system: TRZAS; experiment: Post-emergence herbicidal effect and crop plant compatibility, greenhouse pot test; type: in vivo, Triticum aestivum; details: 20 g/ha, one-leaf stage, rated visually after about 3 weeks vs untreated controls
Method in brief: (§2)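 Sandy loam pots, greenhouse. One-leaf stage (2–3 wk after sowing) foliar spray; WP/EC in water + 0.5% additive, 600 l/ha; 20–320 g/ha. Visual score ~3 wk, 0–100% vs untreated.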

[3] = test system: ECHCG; experiment: Post-emergence herbicidal effect, greenhouse pot test; type: in vivo, Echinochloa crus-galli
Method in brief: as §1

[4] = test system: SETVI; experiment: as above; type: in vivo, Setaria viridis
Method in brief: as §1

[5] = test system: ALOMY; experiment: as above; type: in vivo, Alopecurus myosuroides; details: 320 g/ha, visual rating about 3 weeks after treatment; for pest or weed control at 320 g/ha: Alopecurus myosuroides, 504 h, read-out: Post-emergence effect against ALOMY
Method in brief: as §1

[6] = test system: PHBPU; experiment: as above; type: in vivo, Ipomoea purpurea
Method in brief: as §1

[7] = test system: MATIN; experiment: as above; type: in vivo, Tripleurospermum inodorum
Method in brief: as §1

[8] = test system: AVEFA; experiment: as above; type: in vivo, Avena fatua; details: visual rating about 3 weeks after treatment
Method in brief: as §1

[9] = test system: AMARE; experiment: as above; type: in vivo, Amaranthus retroflexus; details: visual rating about 3 weeks after treatment
Method in brief: as §1

[10] = test system: DIGSA; experiment: as above; type: in vivo, Digitaria sanguinalis; details: 320 g/ha, visual rating about 3 weeks after treatment
Method in brief: as §1

[11] = test system: ABUTH; experiment: as above; type: in vivo, Abutilon theophrasti; details: visual rating about 3 weeks after treatment
Method in brief: as §1

[12] = test system: POLCO; experiment: as above; type: in vivo, Fallopia convolvulus
Method in brief: as §1

[13] = test system: LOLRI; experiment: as above; type: in vivo, Lolium rigidum; details: for pest or weed control at 320 g/ha: Lolium rigidum, 504 h, read-out: Post-emergence effect against LOLRI in %
Method in brief: as §1

[14] = test system: VIOTR; experiment: as above; type: in vivo, Viola tricolor
Method in brief: as §1

[15] = test system: ZEAMX; experiment: Post-emergence herbicidal effect and crop plant compatibility, greenhouse pot test; type: in vivo, Zea mays; details: one-leaf stage, rated visually after about 3 weeks vs untreated controls
Method in brief: as §2

[16] = test system: KCHSC; experiment: Post-emergence herbicidal effect, greenhouse pot test; type: in vivo; details: 320 g/ha
Method in brief: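 Greenhouse plants in sandy loam, sprayed post-emergence at the one-leaf stage (2–3 weeks after sowing) with WP or EC formulations in water plus 0.5% additive at 600 l/ha. Rates 20 to 320 g/ha. Activity rated visually after about 3 weeks against untreated controls (0% like control, 100% dead).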

COC(=O)CCOC(=O)C(OC)Oc1nn(-c2cc(F)ccc2F)c(-c2cncc(F)c2)c1C1CC1 (single isomer, unassigned) [Example I-78]
80%: Post-emergence effect against VERPE in % ([1]; 20 g/ha) | Post-emergence effect against PHBPU in % ([6]; 20 g/ha) | Post-emergence effect against MATIN in % ([7]; 20 g/ha) | Post-emergence effect against DIGSA [10] | Post-emergence effect against ABUTH ([11]; 20 g/ha) | Post-emergence effect against ABUTH ([11]; 80 g/ha) | Post-emergence effect against ABUTH ([11]; 320 g/ha) | Post-emergence effect against VIOTR in % ([14]; 20 g/ha)
90%: Post-emergence effect against VERPE in % ([1]; 80 g/ha) | Post-emergence effect against VERPE in % ([1]; 320 g/ha) | Post-emergence effect against ECHCG ([3]; 20 g/ha, visual rating about 3 weeks after treatment) | Post-emergence effect against ECHCG in % ([3]; 80 g/ha) | Post-emergence effect against ECHCG in % ([3]; 320 g/ha) | Post-emergence effect against SETVI in % ([4]; 80 g/ha) | Post-emergence effect against SETVI in % ([4]; 320 g/ha) | Post-emergence effect against ALOMY [5] | Post-emergence effect against PHBPU in % ([6]; 80 g/ha) | Post-emergence effect against PHBPU in % ([6]; 320 g/ha) | Post-emergence effect against MATIN in % ([7]; 80 g/ha) | Post-emergence effect against MATIN in % ([7]; 320 g/ha) | Post-emergence effect against AVEFA ([8]; 80 g/ha) | Post-emergence effect against AVEFA ([8]; 320 g/ha) | Post-emergence effect against AMARE ([9]; 80 g/ha) | Post-emergence effect against AMARE ([9]; 320 g/ha) | Post-emergence effect against POLCO in % ([12]; 80 g/ha) | Post-emergence effect against POLCO in % ([12]; 320 g/ha) | Post-emergence effect against LOLRI in % ([13]; 80 g/ha) | Post-emergence effect against LOLRI in % ([13]; 320 g/ha) | Post-emergence effect against VIOTR in % ([14]; 80 g/ha) | Post-emergence effect against VIOTR in % ([14]; 320 g/ha)
0%: Post-emergence effect at 20 g/ha against TRZAS in % [2]

COC(Oc1nn(-c2ncccc2F)c(-c2ccc(F)nc2)c1C1CC1)C(=O)O (stereo not shown) [Example I-89]
90%: Post-emergence effect against KCHSC in % [16] | pest or weed control at 320 g/ha [5] | Post-emergence effect against POLCO in % ([12]; 320 g/ha) | pest or weed control at 320 g/ha ([13]; 320 g/ha)
80%: Post-emergence effect against AVEFA ([8]; 320 g/ha)
0%: Post-emergence effect at 20 g/ha against ZEAMX in % ([15]; 20 g/ha) | Post-emergence effect at 80 g/ha against ZEAMX in % ([15]; 80 g/ha) | Post-emergence effect at 20 g/ha against TRZAS in % [2]

CCOC(=O)C(OC)Oc1nn(-c2cc(F)ccc2F)c(-c2cncc(F)c2)c1Br (stereo not shown) [Example I-33]
20%: percent crop injury (phytotoxicity) to wheat, post-emergence at 20 g/ha ([2]; Triticum aestivum, 504 h, read-out: Post-emergence effect at 20 g/ha against TRZAS in %)
80%: pest or weed control at 80 g/ha ([1]; Veronica persica, 504 h, 80 g/ha, read-out: Post-emergence effect against VERPE in %) | pest or weed control at 80 g/ha ([3]; Echinochloa crus-galli, 504 h, 80 g/ha, read-out: Post-emergence effect against ECHCG in %) | pest or weed control at 20 g/ha ([6]; Ipomoea purpurea, 504 h, 20 g/ha, read-out: Post-emergence effect against PHBPU in %) | pest or weed control at 80 g/ha ([7]; Tripleurospermum inodorum, 504 h, 80 g/ha, read-out: Post-emergence effect against MATIN in %) | pest or weed control at 320 g/ha ([10]; Digitaria sanguinalis, 504 h, read-out: Post-emergence effect against DIGSA) | pest or weed control at 320 g/ha ([12]; Fallopia convolvulus, 504 h, 320 g/ha, read-out: Post-emergence effect against POLCO in %) | pest or weed control at 20 g/ha ([14]; Viola tricolor, 504 h, 20 g/ha, read-out: Post-emergence effect against VIOTR in %) | pest or weed control at 80 g/ha ([14]; Viola tricolor, 504 h, 80 g/ha, read-out: Post-emergence effect against VIOTR in %)
90%: pest or weed control at 320 g/ha ([1]; Veronica persica, 504 h, 320 g/ha, read-out: Post-emergence effect against VERPE in %) | pest or weed control at 320 g/ha ([3]; Echinochloa crus-galli, 504 h, 320 g/ha, read-out: Post-emergence effect against ECHCG in %) | pest or weed control at 80 g/ha ([4]; Setaria viridis, 504 h, 80 g/ha, read-out: Post-emergence effect against SETVI in %) | pest or weed control at 320 g/ha ([4]; Setaria viridis, 504 h, 320 g/ha, read-out: Post-emergence effect against SETVI in %) | pest or weed control at 320 g/ha [5] | pest or weed control at 80 g/ha ([6]; Ipomoea purpurea, 504 h, 80 g/ha, read-out: Post-emergence effect against PHBPU in %) | pest or weed control at 320 g/ha ([6]; Ipomoea purpurea, 504 h, 320 g/ha, read-out: Post-emergence effect against PHBPU in %) | pest or weed control at 320 g/ha ([7]; Tripleurospermum inodorum, 504 h, 320 g/ha, read-out: Post-emergence effect against MATIN in %) | pest or weed control at 320 g/ha ([8]; Avena fatua, 504 h, 320 g/ha, read-out: Post-emergence effect against AVEFA) | pest or weed control at 80 g/ha ([11]; Abutilon theophrasti, 504 h, 80 g/ha, read-out: Post-emergence effect against ABUTH) | pest or weed control at 320 g/ha ([11]; Abutilon theophrasti, 504 h, 320 g/ha, read-out: Post-emergence effect against ABUTH) | pest or weed control at 320 g/ha ([13]; 320 g/ha) | pest or weed control at 320 g/ha ([14]; Viola tricolor, 504 h, 320 g/ha, read-out: Post-emergence effect against VIOTR in %)
